Laboratory results from ChEMBL document CHEMBL5357058, “Norterpene Cyclic Peroxides from the Marine Sponge Diacarnus spinipoculum, Inhibitors of Transient Receptor Potential Ankyrin 1” (J Nat Prod, 2024).
pIC50: −log10 of the molar value.

Target: Transient receptor potential cation channel subfamily A member 1 (Homo sapiens, UniProt O75762)
Assay: Inhibition of human TRPA1 overexpressed in HEK293 cells assessed as reduction in AITC-induced calcium mobilization preincubated for 5 mins followed by AITC addition by FLIPR assay
Format: cell-based

Chain of Transient receptor potential cation channel subfamily A member 1 (O75762 whole entry): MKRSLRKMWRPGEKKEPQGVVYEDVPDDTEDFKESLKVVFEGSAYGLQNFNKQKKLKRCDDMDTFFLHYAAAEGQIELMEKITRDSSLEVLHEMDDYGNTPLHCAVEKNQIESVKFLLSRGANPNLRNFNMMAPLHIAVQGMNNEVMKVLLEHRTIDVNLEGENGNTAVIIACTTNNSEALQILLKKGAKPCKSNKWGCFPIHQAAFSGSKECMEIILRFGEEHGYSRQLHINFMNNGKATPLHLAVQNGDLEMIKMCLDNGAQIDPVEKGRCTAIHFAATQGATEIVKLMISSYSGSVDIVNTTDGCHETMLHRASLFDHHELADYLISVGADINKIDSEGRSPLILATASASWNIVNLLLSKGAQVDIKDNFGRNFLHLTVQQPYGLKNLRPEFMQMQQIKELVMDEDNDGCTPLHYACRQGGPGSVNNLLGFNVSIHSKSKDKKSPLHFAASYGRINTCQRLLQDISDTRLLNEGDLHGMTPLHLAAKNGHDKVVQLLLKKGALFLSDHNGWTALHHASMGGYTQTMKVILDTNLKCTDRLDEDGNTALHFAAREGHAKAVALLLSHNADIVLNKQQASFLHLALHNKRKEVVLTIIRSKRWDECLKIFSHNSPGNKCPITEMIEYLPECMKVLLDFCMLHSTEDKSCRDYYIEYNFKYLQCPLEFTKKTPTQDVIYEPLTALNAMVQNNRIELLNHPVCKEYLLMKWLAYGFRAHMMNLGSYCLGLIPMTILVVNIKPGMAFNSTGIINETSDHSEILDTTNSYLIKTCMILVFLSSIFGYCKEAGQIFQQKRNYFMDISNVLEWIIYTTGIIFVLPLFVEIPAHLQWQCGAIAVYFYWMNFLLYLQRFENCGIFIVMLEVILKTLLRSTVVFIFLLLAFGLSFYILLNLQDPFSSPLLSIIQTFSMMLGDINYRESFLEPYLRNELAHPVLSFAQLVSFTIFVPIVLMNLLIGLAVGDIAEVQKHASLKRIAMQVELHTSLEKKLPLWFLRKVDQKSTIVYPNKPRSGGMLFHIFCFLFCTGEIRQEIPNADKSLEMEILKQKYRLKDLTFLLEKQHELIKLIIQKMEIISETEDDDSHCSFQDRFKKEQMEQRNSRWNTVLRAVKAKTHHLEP

| Compound | pIC50 |
| --- | --- |
| CC1=C(CC[C@]2(C)CC[C@H]([C@@H](C)C(=O)O)OO2)C(C)(C)CCC1 | < 4.52 |
| C=C1CCCC(C)(C)C1CC[C@]1(C)CC[C@@H]([C@@H](C)C(=O)OC)OO1 (some centres not stated) | < 4.52 |
| COC(=O)[C@H](C)[C@@H]1CC[C@@](C)(CCC2=C(C)CCCC2(C)C)OO1 | 4.53 |
| CC1=C(CC/C(C)=C/CC[C@]2(C)CC[C@@H]([C@H](C)C(=O)O)OO2)C(C)(C)CCC1 | 5.25 |
| CC1=C(CC/C(C)=C/CC[C@@]2(C)CC[C@@H]([C@H](C)C(=O)O)OO2)C(C)(C)CCC1=O | 4.82 |
| C=C1CCC[C@H]2[C@](C)(CC[C@@]3(C)CC[C@H]([C@@H](C)C(=O)O)OO3)[C@@H](C)CC[C@]12C | 5.70 |
| C=C1CCC[C@H]2[C@](C)(CC[C@@]3(C)CC[C@H]([C@@H](C)C(=O)OC)OO3)[C@@H](C)CC[C@]12C | 4.87 |
| COC(=O)[C@H](C)[C@H]1CC[C@@](C)(CCC2=C(C)C(O)CCC2(C)C)OO1 (mixture of isomers) | < 4.52 |
| COC(=O)[C@H](C)[C@@H]1CC[C@@](C)(CCC2=C(C)C(O)CCC2(C)C)OO1 (mixture of isomers) | < 4.52 |
| COC(=O)[C@H](C)[C@@H]1CC[C@@](C)(CCC2=C(C)C(OC)CCC2(C)C)OO1 (mixture of isomers) | < 4.52 |
| COC(=O)[C@H](C)[C@H]1CC[C@@](C)(CCC2=C(C)C(OC)CCC2(C)C)OO1 (mixture of isomers) | < 4.52 |
| CC(=O)CCCC(C)(C)C(=O)CC/C(C)=C/CC[C@]1(C)CC[C@H]([C@@H](C)C(=O)O)OO1 [(+)-MUQUBILONE B] | < 4.52 |
| COC(=O)[C@H](C)[C@H]1CC[C@@](C)(CCC2=C(C)C(=O)CCC2(C)C)OO1 [DIACARPEROXIDE A] | 4.66 |
| CC1=C(CC/C(C)=C/CC[C@@]2(C)CC[C@@H]([C@H](C)C(=O)O)OO2)C(C)(C)CCC1 [EPIMUQUBILIN A] | 5.32 |
| COC(=O)[C@H](C)[C@@H]1CC[C@@](C)(CCC2=C(C)C(=O)CCC2(C)C)OO1 [METHYL DIACARNOATE A] | < 4.52 |
| COC(=O)[C@H](C)[C@H]1CC[C@@](C)(CCC2=C(C)CCCC2(C)C)OO1 [NUAPAPUIN A METHYL ESTER] | 4.85 |
| C=C1CCCC(C)(C)C1CC[C@]1(C)CC[C@H]([C@@H](C)C(=O)OC)OO1 (some centres not stated) [NUAPAPUIN B] | 4.72 |
